Measurements reported in patent publication US20120214822A1 (ASTRAZENECA AB, priority 2007, published 2012).
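Further: 0.5 nM final p38α, reaction started with ATP and run 45 min at 37 °C, phospho-ATF2 read by antibody-based AlphaScreen, background wells quenched with EDTA before ATP.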

These compounds were tested against human active recombinant p38α-6His tagged (Homo sapiens, UniProt Q16539) (assay: P38 Alpha Enzyme Assay (AlphaScreen, biotinylated-ATF2 substrate)). Conditions: p38 alpha enzyme inhibition; means of replicate determinations; 4 h pre-incubation at 37° C.; SD of assay 0.2-0.3 log units.
Chain of human active recombinant p38α-6His tagged (Q16539 whole entry): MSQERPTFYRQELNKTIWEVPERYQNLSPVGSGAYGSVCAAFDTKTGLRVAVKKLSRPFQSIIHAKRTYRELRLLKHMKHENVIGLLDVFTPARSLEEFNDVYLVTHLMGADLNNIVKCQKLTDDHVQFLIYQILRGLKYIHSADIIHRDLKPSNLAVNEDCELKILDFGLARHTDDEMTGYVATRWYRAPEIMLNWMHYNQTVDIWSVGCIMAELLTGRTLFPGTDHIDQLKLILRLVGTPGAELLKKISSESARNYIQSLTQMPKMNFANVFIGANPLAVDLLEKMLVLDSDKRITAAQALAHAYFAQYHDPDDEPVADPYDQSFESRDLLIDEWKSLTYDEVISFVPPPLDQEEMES
Format: biochemical
`Cc1c(F)cc(C(=O)NC2CC2)cc1-n1ccnc(NC2(c3ccccc3OCCNC(C)C)CC2)c1=O` [Example 264, N-Cyclopropyl-3-fluoro-4-methyl-5-[3-[[1-[2-[2-[(1-methylethyl)amino]ethoxy]phenyl]cyclopropyl]amino]-2-oxo-1(2H)-pyrazinyl]-benzamide] gave a pIC50 of 10.1.
Compound `Cc1c(F)cc(C(=O)NC2CC2)cc1-n1ccnc(NC2(c3ccccc3OCCNC[C@@H](C)O)CC2)c1=O` [Example 265, N-Cyclopropyl-3-fluoro-5-[3-[[1-[2-[2-[[(2R)-2-hydroxypropyl]amino]ethoxy]phenyl]cyclopropyl]amino]-2-oxo-1(2H)-pyrazinyl]-4-methyl-benzamide] has a pIC50 of 9.7.
Work on `CCNCCOc1ccccc1C(CC)(CC)Nc1nccn(-c2cc(C(=O)NC3CC3)ccc2C)c1=O` [Example 267, N-Cyclopropyl-3-[3-[[1-ethyl-1-[2-[2-(ethylamino)ethoxy]phenyl]propyl]amino]-2-oxo-1(2H)-pyrazinyl]-4-methyl-benzamide] yielded a pIC50 of 9.5.
In the case of `CNCCOc1ccccc1C1(Nc2nccn(-c3cc(C(=O)NC4CC4)ccc3C)c2=O)CCC1` [Example 268, N-Cyclopropyl-4-methyl-3-[3-[[1-[2-[2-(methylamino)ethoxy]phenyl]cyclobutyl]amino]-2-oxo-1(2H)-pyrazinyl]-benzamide], the pIC50 is reported as 10.
With `CCNCCOc1ccccc1C1(Nc2nccn(-c3cc(C(=O)NC4CC4)ccc3C)c2=O)CCC1` [Example 269, N-Cyclopropyl-3-[3-[[1-[2-[2-(ethylamino)ethoxy]phenyl]cyclobutyl]amino]-2-oxo-1(2H)-pyrazinyl]-4-methyl-benzamide] the pIC50 was 9.9.
Work on `Cc1ccc(C(=O)NC2CC2)cc1-n1ccnc(NC2(c3ccccc3OCCNCCO)CCC2)c1=O` [Example 270, N-Cyclopropyl-3-[3-[[1-[2-[2-[(2-hydroxyethyl)amino]ethoxy]phenyl]cyclobutyl]amino]-2-oxo-1(2H)-pyrazinyl]-4-methyl-benzamide] yielded a pIC50 of 9.9.
Work on `Cc1ccc(C(=O)NC2CC2)cc1-n1ccnc(NC2(c3ccccc3OCCNC(C)C)CCC2)c1=O` [Example 271, N-Cyclopropyl-4-methyl-3-[3-[[1-[2-[2-[(1-methylethyl)amino]ethoxy]phenyl]cyclobutyl]amino]-2-oxo-1(2H)-pyrazinyl]-benzamide] yielded a pIC50 of 9.9.
`Cc1ccccc1[C@H](Nc1nccn(-c2cc(C(=O)NC3CC3)ccc2C)c1=O)[C@@H](C)CO` [Example 272, N-Cyclopropyl-3-[3-[[(1R,2R)-3-hydroxy-1-(2-methylphenyl)-2-methylpropyl]amino]-2-oxo-1(2H)-pyrazinyl]-4-methyl-benzamide] gave a pIC50 of 8.5.
Work on `Cc1cccc([C@H](Nc2nccn(-c3cc(C(=O)NC4CC4)ccc3C)c2=O)[C@@H](C)CO)c1` [Example 273, N-Cyclopropyl-3-[3-[[(1R,2R)-3-hydroxy-1-(3-methylphenyl)-2-methylpropyl]amino]-2-oxo-1(2H)-pyrazinyl]-4-methyl-benzamide] yielded a pIC50 of 9.
`COc1ccccc1[C@H](Nc1nccn(-c2cc(C(=O)NC3CC3)ccc2C)c1=O)[C@@H](C)CO` [Example 274, N-Cyclopropyl-3-[3-[[(1R,2R)-3-hydroxy-1-(2-methoxyphenyl)-2-methylpropyl]amino]-2-oxo-1(2H)-pyrazinyl]-4-methyl-benzamide] gave a pIC50 of 8.7.
`Cc1ccccc1[C@H](Nc1nccn(-c2cc(C(=O)NC3CC3)ccc2C)c1=O)[C@@H](C)CN1CCCC1` [Example 275, N-Cyclopropyl-3-[3-[[(1R,2S)-1-(2-methylphenyl)-2-methyl-3-(1-pyrrolidinyl)propyl]amino]-2-oxo-1(2H)-pyrazinyl]-4-methyl-benzamide] showed a pIC50 of 8.6.
`Cc1cccc([C@H](Nc2nccn(-c3cc(C(=O)NC4CC4)ccc3C)c2=O)[C@@H](C)CN2CCCC2)c1` [Example 276, N-Cyclopropyl-3-[3-[[(1R,2S)-1-(3-methylphenyl)-2-methyl-3-(1-pyrrolidinyl)propyl]amino]-2-oxo-1(2H)-pyrazinyl]-4-methyl-benzamide] showed a pIC50 of 8.8.
Compound `COc1ccccc1[C@H](Nc1nccn(-c2cc(C(=O)NC3CC3)ccc2C)c1=O)[C@@H](C)CN1CCCC1` [Example 277, N-Cyclopropyl-3-[3-[[(1R,2S)-1-(2-methoxyphenyl)-2-methyl-3-(1-pyrrolidinyl)propyl]amino]-2-oxo-1(2H)-pyrazinyl]-4-methyl-benzamide] has a pIC50 of 8.5.
`CNCCOc1ccc(F)cc1C1(Nc2nccn(-c3cc(C(=O)NC4CC4)ccc3C)c2=O)CC1` [Example 278, N-Cyclopropyl-3-[3-[[1-[5-fluoro-2-[2-(methylamino)ethoxy]phenyl]cyclopropyl]amino]-2-oxo-1(2H)-pyrazinyl]-4-methyl-benzamide] showed a pIC50 of 9.9.
With `Cc1ccc(C(=O)NC2CC2)cc1-n1ccnc(NC2(c3cc(F)ccc3OCCNCCO)CC2)c1=O` [Example 279, N-Cyclopropyl-3-[3-[[1-[5-fluoro-2-[2-[(2-hydroxyethyl)amino]ethoxy]phenyl]cyclopropyl]amino]-2-oxo-1(2H)-pyrazinyl]-4-methyl-benzamide] the pIC50 was 10.1.
Compound `CCNCCOc1ccc(F)cc1C1(Nc2nccn(-c3cc(C(=O)NC4CC4)ccc3C)c2=O)CC1` [Example 280, N-Cyclopropyl-3-[3-[[1-[2-[2-(ethylamino)ethoxy]-5-fluorophenyl]cyclopropyl]amino]-2-oxo-1(2H)-pyrazinyl]-4-methyl-benzamide] has a pIC50 of 10.1.
With `CNCCOc1ccc(F)cc1C1(Nc2nccn(-c3cc(C(=O)NC4CC4)cc(F)c3C)c2=O)CC1` [Example 281, N-Cyclopropyl-3-fluoro-5-{3-[(1-{5-fluoro-2-[2-(methylamino)ethoxy]phenyl}cyclopropyl)amino]-2-oxopyrazin-1(2H)-yl}-4-methylbenzamide] the pIC50 was 10.4.
Compound `Cc1c(F)cc(C(=O)NC2CC2)cc1-n1ccnc(NC2(c3cc(F)ccc3OCCNCCO)CC2)c1=O` [Example 282, N-Cyclopropyl-3-fluoro-5-[3-{[1-(5-fluoro-2-{2-[(2-hydroxyethyl)amino]ethoxy}phenyl)cyclopropyl]amino}-2-oxopyrazin-1(2H)-yl]-4-methylbenzamide] has a pIC50 of 10.3.
In the case of `Cc1ccc(C(=O)NC2CC2)cc1-n1ccnc(NC2(c3cccc(F)c3OCCNC[C@@H](C)O)CC2)c1=O` [Example 283, N-Cyclopropyl-3-[3-({1-[3-fluoro-2-(2-{[(2R)-2-hydroxypropyl]amino}ethoxy)phenyl]cyclopropyl}amino)-2-oxopyrazin-1(2H)-yl]-4-methylbenzamide], the pIC50 is reported as 9.7.
`Cc1ccc(C(=O)NC2CC2)cc1-n1ccnc(NC2(c3cccc(F)c3OCCN)CC2)c1=O` [Example 284, 3-[3-({1-[2-(2-Aminoethoxy)-3-fluorophenyl]cyclopropyl}amino)-2-oxopyrazin-1(2H)-yl]-N-cyclopropyl-4-methylbenzamide] was tested, and the pIC50 was 9.5.
`Cc1ccc(C(=O)NC2CC2)cc1-n1ccnc(NC2(c3cccc(F)c3OCCNCCO)CC2)c1=O` [Example 285, N-Cyclopropyl-3-[3-{[1-(3-fluoro-2-{2-[(2-hydroxyethyl)amino]ethoxy}phenyl)cyclopropyl]amino}-2-oxopyrazin-1(2H)-yl]-4-methylbenzamide] showed a pIC50 of 9.6.
`CCNCCOc1c(F)cccc1C1(Nc2nccn(-c3cc(C(=O)NC4CC4)ccc3C)c2=O)CC1` [Example 286, N-Cyclopropyl-3-{3-[(1-{2-[2-(ethylamino)ethoxy]-3-fluorophenyl}cyclopropyl)amino]-2-oxopyrazin-1(2H)-yl}-4-methylbenzamide] showed a pIC50 of 9.3.
With `CNCCOc1c(F)cccc1C1(Nc2nccn(-c3cc(C(=O)NC4CC4)ccc3C)c2=O)CC1` [Example 287, N-Cyclopropyl-3-{3-[(1-{3-fluoro-2-[2-(methylamino)ethoxy]phenyl}cyclopropyl)amino]-2-oxopyrazin-1(2H)-yl}-4-methylbenzamide] the pIC50 was 9.3.
Work on `CCc1ccc(C(=O)NC2CC2)cc1-n1ccnc(NC(C)(C)c2ccccc2OCCNC)c1=O` [Example 288, N-Cyclopropyl-4-ethyl-3-{3-[(1-methyl-1-{2-[2-(methylamino)ethoxy]phenyl}ethyl)amino]-2-oxopyrazin-1(2H)-yl}benzamide] yielded a pIC50 of 8.4.
In the case of `CCc1ccc(C(=O)NC2CC2)cc1-n1ccnc(NC(C)(C)c2ccccc2OCCNC[C@H](C)O)c1=O` [Example 289, N-Cyclopropyl-4-ethyl-3-[3-({1-[2-(2-{[(2S)-2-hydroxypropyl]amino}ethoxy)phenyl]-1-methylethyl}amino)-2-oxopyrazin-1(2H)-yl]benzamide], the pIC50 is reported as 8.9.
`CCNCCOc1ccccc1C(C)(C)Nc1nccn(-c2cc(C(=O)NC3CC3)ccc2CC)c1=O` [Example 290, N-Cyclopropyl-4-ethyl-3-{3-[(1-{2-[2-(ethylamino)ethoxy]phenyl}-1-methylethyl)amino]-2-oxopyrazin-1(2H)-yl}benzamide] gave a pIC50 of 8.5.
`CCc1ccc(C(=O)NC2CC2)cc1-n1ccnc(NC(C)(C)c2ccccc2OCCNCCO)c1=O` [Example 291, N-Cyclopropyl-4-ethyl-3-[3-{[1-(2-{2-[(2-hydroxyethyl)amino]ethoxy}phenyl)-1-methylethyl]amino}-2-oxopyrazin-1(2H)-yl]benzamide] gave a pIC50 of 8.5.
In the case of `CCc1ccc(C(=O)NC2CC2)cc1-n1ccnc(NC(C)(C)c2ccccc2OCCN)c1=O` [Example 292, 3-[3-({1-[2-(2-Aminoethoxy)phenyl]-1-methylethyl}amino)-2-oxopyrazin-1(2H)-yl]-N-cyclopropyl-4-ethylbenzamide], the pIC50 is reported as 8.4.
Work on `Cc1ccc(C(=O)NC2CC2)cc1-n1ccnc(NC2(c3ccccc3OCCN[C@@H](CO)C(C)C)CC2)c1=O` [Example 293, N-Cyclopropyl-3-[3-({1-[2-(2-{[(1R)-1-(hydroxymethyl)-2-methylpropyl]amino}ethoxy)phenyl]cyclopropyl}amino)-2-oxopyrazin-1(2H)-yl]-4-methylbenzamide] yielded a pIC50 of 9.5.
`Cc1ccc(C(=O)NC2CC2)cc1-n1ccnc(NC2(c3ccccc3OCCNC(CO)CO)CC2)c1=O` [Example 294, N-Cyclopropyl-3-[3-({1-[2-(2-{[2-hydroxy-1-(hydroxymethyl)ethyl]amino}ethoxy)phenyl]cyclopropyl}amino)-2-oxopyrazin-1(2H)-yl]-4-methylbenzamide] was tested, and the pIC50 was 10.
